Structures are written as SMILES.
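Also: at 5 µM compound concentration.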

T1 sequence (Q95PM0 entry or part of it): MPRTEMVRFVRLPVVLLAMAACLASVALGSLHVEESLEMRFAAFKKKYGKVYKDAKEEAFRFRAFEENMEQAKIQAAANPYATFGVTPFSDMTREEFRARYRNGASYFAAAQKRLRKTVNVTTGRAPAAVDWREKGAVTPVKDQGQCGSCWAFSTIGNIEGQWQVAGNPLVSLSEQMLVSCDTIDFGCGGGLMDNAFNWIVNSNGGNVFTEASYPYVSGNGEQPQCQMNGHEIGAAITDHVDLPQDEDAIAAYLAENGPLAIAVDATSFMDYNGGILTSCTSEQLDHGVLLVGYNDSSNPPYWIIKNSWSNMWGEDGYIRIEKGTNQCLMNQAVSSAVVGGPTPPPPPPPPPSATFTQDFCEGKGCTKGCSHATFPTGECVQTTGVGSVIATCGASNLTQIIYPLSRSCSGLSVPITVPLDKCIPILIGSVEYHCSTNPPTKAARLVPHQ

The first experiment deals with cruzain (Trypanosoma cruzi, UniProt P25779). Nature of the experiment: biochemical. Conditions: 0’ (pre-incubation time); sheet "Screening results". The method, then: (§1) Allison Doak and Prof. Brian Shoichet (University of California San Francisco, San Francisco, CA, USA) and Prof. Conor Caffrey (University of California San Diego, San Diego, CA, USA) generously provided recombinant cruzain and TbrCatL, respectively. In vitro activity of proteases cruzain and TbrCatL was assayed as previously described. Briefly, enzyme activity was measured by monitoring the cleavage of the fluorogenic substrate […] (Z-FR-AMC) at 25 °C. Fluorescence was monitored at 340/440 nm (excitation/emission) over 5–7 min in a Synergy2 Biotek plate reader. […] DMSO and 1 μM E-64 were employed as negative and positive controls, respectively, in all assays. Two conditions were employed for both enzymes: 10′ pre-incubation of the enzyme in the presence of the compound (10′ inc) and no pre-incubation (0′). Reported values correspond to the mean and standard error of the mean (SEM) and all analyses were performed using GraphPad Prism 6.0.
Sequence of cruzain (P25779 123-337 limits assumed): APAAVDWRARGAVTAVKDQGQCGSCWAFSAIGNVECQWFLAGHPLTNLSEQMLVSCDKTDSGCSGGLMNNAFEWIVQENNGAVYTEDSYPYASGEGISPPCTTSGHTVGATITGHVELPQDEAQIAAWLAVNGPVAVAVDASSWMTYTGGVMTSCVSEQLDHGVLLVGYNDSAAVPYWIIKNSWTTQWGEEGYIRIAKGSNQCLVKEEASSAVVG
(§2) For the initial screening, compounds were assayed at 5 μM. […] IC50 curves were obtained from a non-linear fit of at least seven distinct compound concentrations, in triplicate. Reported IC50 values are the mean and SEM of two independent measurements.
With `CCN(CC)CCCN1CCN(C(=O)c2cccc(-c3noc(C(F)(F)F)n3)c2)CC1` [MMV022236], the “Cruzain 0’ Inhibition” value amounted to 7%.

`O=C(Nc1ccc(N2CCNCC2)cc1)c1ccn2ncc(-c3cccc(Cl)c3)c2n1` [MMV022478]: the “Cruzain 0’ Inhibition” value stood at 15%.

As to `c1ccc2c(c1)CN(CC1CC1)CC1(CCN(Cc3c[nH]c4cnccc34)CC1)O2` [MMV023183], the “Cruzain 0’ Inhibition” value is 3.5%.

Regarding `Cc1nc(-c2cccc(NCc3ccccc3)c2)[nH]c1C` [MMV023227], the “Cruzain 0’ Inhibition” value turned out to be 2%.

Consider `Nc1nccc2ccc(-c3ccc4nccn4c3)cc12` [MMV023233], for which the “Cruzain 0’ Inhibition” value is 11%.

On to `Nc1ncc(-c2cn[nH]c2)cc1-c1nc2cc(Cl)cnc2[nH]1` [MMV023370], for which the “Cruzain 0’ Inhibition” value is given as -3.5%.

`O=C(NC1CCN(c2ccnc3ccccc23)C1)c1cccc(C(F)(F)F)c1` (centres unmarked) [MMV023388]: the “Cruzain 0’ Inhibition” value amounted to 8%.

As to `NS(=O)(=O)c1cccc(-c2ccc3ncc(N4CCOCC4)nc3c2)c1` [MMV023860], the “Cruzain 0’ Inhibition” value is -5.3%.

As to `CC(C)(C)c1cc(C(=O)N2CCN(c3nccnc3C#N)CC2)n(Cc2ccccc2)n1` [MMV023949], the “Cruzain 0’ Inhibition” value is -0.2%.

As for `O=C(Nc1cccc(-c2ccc(NCCCN3CCCC3)nc2)c1)c1ccccc1` [MMV023953], the “Cruzain 0’ Inhibition” value amounted to 8%.

As for `c1cncc(NCc2ccc(-c3cc4ccncc4cc3OC3CCNCC3)s2)c1` [MMV023969], the “Cruzain 0’ Inhibition” value was 29%.

Turning to `COc1ccc(-c2cnc3ccc(N4CCCC4)nn23)cc1OC` [MMV023985], the “Cruzain 0’ Inhibition” value is -3.2%.

Consider `O=C(Nc1ccccc1)c1ccc(-c2cc3ccncc3cc2OC2CCNCC2)s1` [MMV024035], for which the “Cruzain 0’ Inhibition” value turned out to be 5%.

In the case of `NS(=O)(=O)c1cncc(-c2ccc3nccc(-c4cn[nH]c4)c3n2)c1` [MMV024101], the “Cruzain 0’ Inhibition” value is on record as 7%.

Take `Cc1ccc(S(=O)(=O)n2cc(-c3ccnc(N)c3)c3cc(Br)cnc32)cc1` [MMV024114]: the “Cruzain 0’ Inhibition” value is -9%.

As for `CN(C)CCNC(=O)N1CCCN(c2ncnc3cc(-c4ccccc4)sc23)CC1` [MMV024195], the “Cruzain 0’ Inhibition” value was -3.2%.

In the case of `Cc1ccc2[nH]c(C3CCCNC3)c(-c3ccncc3)c2c1` (centres unmarked) [MMV024311], the “Cruzain 0’ Inhibition” value is -7.4%.

The same experiment, now with this note: 10’ (pre-incubation time); sheet "Screening results".
For `CCN(CC)CCCN1CCN(C(=O)c2cccc(-c3noc(C(F)(F)F)n3)c2)CC1` [MMV022236], the “Cruzain 10’ Inhibition” value amounted to 16%.

For `O=C(Nc1ccc(N2CCNCC2)cc1)c1ccn2ncc(-c3cccc(Cl)c3)c2n1` [MMV022478], the “Cruzain 10’ Inhibition” value came to 18%.

As for `c1ccc2c(c1)CN(CC1CC1)CC1(CCN(Cc3c[nH]c4cnccc34)CC1)O2` [MMV023183], the “Cruzain 10’ Inhibition” value is 15%.

`Cc1nc(-c2cccc(NCc3ccccc3)c2)[nH]c1C` [MMV023227]: the “Cruzain 10’ Inhibition” value was 15%.

In the case of `Nc1nccc2ccc(-c3ccc4nccn4c3)cc12` [MMV023233], the “Cruzain 10’ Inhibition” value is listed as 8%.

Turning to `Nc1ncc(-c2cn[nH]c2)cc1-c1nc2cc(Cl)cnc2[nH]1` [MMV023370], the “Cruzain 10’ Inhibition” value stood at 8%.

Turning to `O=C(NC1CCN(c2ccnc3ccccc23)C1)c1cccc(C(F)(F)F)c1` (centres unmarked) [MMV023388], the “Cruzain 10’ Inhibition” value stood at 14%.

In the case of `NS(=O)(=O)c1cccc(-c2ccc3ncc(N4CCOCC4)nc3c2)c1` [MMV023860], the “Cruzain 10’ Inhibition” value was found to be 28%.

For `CC(C)(C)c1cc(C(=O)N2CCN(c3nccnc3C#N)CC2)n(Cc2ccccc2)n1` [MMV023949], the “Cruzain 10’ Inhibition” value turned out to be 6%.

Regarding `O=C(Nc1cccc(-c2ccc(NCCCN3CCCC3)nc2)c1)c1ccccc1` [MMV023953], the “Cruzain 10’ Inhibition” value amounted to 11%.

Take `c1cncc(NCc2ccc(-c3cc4ccncc4cc3OC3CCNCC3)s2)c1` [MMV023969]: the “Cruzain 10’ Inhibition” value is recorded as 31%.

On to `COc1ccc(-c2cnc3ccc(N4CCCC4)nn23)cc1OC` [MMV023985], for which the “Cruzain 10’ Inhibition” value was -13%.

Consider `O=C(Nc1ccccc1)c1ccc(-c2cc3ccncc3cc2OC2CCNCC2)s1` [MMV024035], for which the “Cruzain 10’ Inhibition” value is -6.5%.

With `NS(=O)(=O)c1cncc(-c2ccc3nccc(-c4cn[nH]c4)c3n2)c1` [MMV024101], the “Cruzain 10’ Inhibition” value was found to be 26%.

Turning to `Cc1ccc(S(=O)(=O)n2cc(-c3ccnc(N)c3)c3cc(Br)cnc32)cc1` [MMV024114], the “Cruzain 10’ Inhibition” value was 15%.

Take `CN(C)CCNC(=O)N1CCCN(c2ncnc3cc(-c4ccccc4)sc23)CC1` [MMV024195]: the “Cruzain 10’ Inhibition” value came to 1.9%.

As for `Cc1ccc2[nH]c(C3CCCNC3)c(-c3ccncc3)c2c1` (centres unmarked) [MMV024311], the “Cruzain 10’ Inhibition” value is on record as 15%.

A further experiment concerns the target T1, TbrCatL (Trypanosoma brucei rhodesiense, UniProt Q95PM0).
T1 construct: Conor Caffrey (University of California San Diego)
Nature of the experiment: TbrCatL enzymatic inhibition assay (cleavage of fluorogenic substrate Z-FR-AMC). In kind it is biochemical. Conditions: 0’ (pre-incubation time); sheet "Screening results". The method, then: as §1, §2
Turning to `CCN(CC)CCCN1CCN(C(=O)c2cccc(-c3noc(C(F)(F)F)n3)c2)CC1` [MMV022236], the “TbrCatL 0’ Inhibition” value is 7.4%.

In the case of `O=C(Nc1ccc(N2CCNCC2)cc1)c1ccn2ncc(-c3cccc(Cl)c3)c2n1` [MMV022478], the “TbrCatL 0’ Inhibition” value turned out to be 1.7%.

Consider `c1ccc2c(c1)CN(CC1CC1)CC1(CCN(Cc3c[nH]c4cnccc34)CC1)O2` [MMV023183], for which the “TbrCatL 0’ Inhibition” value was found to be 6%.

Regarding `Cc1nc(-c2cccc(NCc3ccccc3)c2)[nH]c1C` [MMV023227], the “TbrCatL 0’ Inhibition” value is -7%.

For `Nc1nccc2ccc(-c3ccc4nccn4c3)cc12` [MMV023233], the “TbrCatL 0’ Inhibition” value came to 0.7%.

On to `Nc1ncc(-c2cn[nH]c2)cc1-c1nc2cc(Cl)cnc2[nH]1` [MMV023370], for which the “TbrCatL 0’ Inhibition” value is given as 3.3%.

In the case of `O=C(NC1CCN(c2ccnc3ccccc23)C1)c1cccc(C(F)(F)F)c1` (centres unmarked) [MMV023388], the “TbrCatL 0’ Inhibition” value turned out to be 10%.

For `NS(=O)(=O)c1cccc(-c2ccc3ncc(N4CCOCC4)nc3c2)c1` [MMV023860], the “TbrCatL 0’ Inhibition” value is -1.3%.

Regarding `CC(C)(C)c1cc(C(=O)N2CCN(c3nccnc3C#N)CC2)n(Cc2ccccc2)n1` [MMV023949], the “TbrCatL 0’ Inhibition” value was determined as 12%.

Turning to `O=C(Nc1cccc(-c2ccc(NCCCN3CCCC3)nc2)c1)c1ccccc1` [MMV023953], the “TbrCatL 0’ Inhibition” value turned out to be 12%.

Regarding `c1cncc(NCc2ccc(-c3cc4ccncc4cc3OC3CCNCC3)s2)c1` [MMV023969], the “TbrCatL 0’ Inhibition” value was 19%.

For the compound `COc1ccc(-c2cnc3ccc(N4CCCC4)nn23)cc1OC` [MMV023985], the “TbrCatL 0’ Inhibition” value is reported as -7%.

With `O=C(Nc1ccccc1)c1ccc(-c2cc3ccncc3cc2OC2CCNCC2)s1` [MMV024035], the “TbrCatL 0’ Inhibition” value is given as -3%.

As to `NS(=O)(=O)c1cncc(-c2ccc3nccc(-c4cn[nH]c4)c3n2)c1` [MMV024101], the “TbrCatL 0’ Inhibition” value is reported as 6%.

With `Cc1ccc(S(=O)(=O)n2cc(-c3ccnc(N)c3)c3cc(Br)cnc32)cc1` [MMV024114], the “TbrCatL 0’ Inhibition” value is -5%.

Regarding `CN(C)CCNC(=O)N1CCCN(c2ncnc3cc(-c4ccccc4)sc23)CC1` [MMV024195], the “TbrCatL 0’ Inhibition” value was 1.1%.

Consider `Cc1ccc2[nH]c(C3CCCNC3)c(-c3ccncc3)c2c1` (centres unmarked) [MMV024311], for which the “TbrCatL 0’ Inhibition” value is listed as -12%.

The same experiment, now with this note: 10’ (pre-incubation time); sheet "Screening results".
As for `CCN(CC)CCCN1CCN(C(=O)c2cccc(-c3noc(C(F)(F)F)n3)c2)CC1` [MMV022236], the “TbrCatL 10’ Inhibition” value worked out at 16%.

On to `O=C(Nc1ccc(N2CCNCC2)cc1)c1ccn2ncc(-c3cccc(Cl)c3)c2n1` [MMV022478], for which the “TbrCatL 10’ Inhibition” value is 10%.

On to `c1ccc2c(c1)CN(CC1CC1)CC1(CCN(Cc3c[nH]c4cnccc34)CC1)O2` [MMV023183], for which the “TbrCatL 10’ Inhibition” value amounted to 1.8%.

As to `Cc1nc(-c2cccc(NCc3ccccc3)c2)[nH]c1C` [MMV023227], the “TbrCatL 10’ Inhibition” value stood at 22%.

Regarding `Nc1nccc2ccc(-c3ccc4nccn4c3)cc12` [MMV023233], the “TbrCatL 10’ Inhibition” value worked out at 7%.

In the case of `Nc1ncc(-c2cn[nH]c2)cc1-c1nc2cc(Cl)cnc2[nH]1` [MMV023370], the “TbrCatL 10’ Inhibition” value is -1.5%.

With `O=C(NC1CCN(c2ccnc3ccccc23)C1)c1cccc(C(F)(F)F)c1` (centres unmarked) [MMV023388], the “TbrCatL 10’ Inhibition” value came out at 13%.

Turning to `NS(=O)(=O)c1cccc(-c2ccc3ncc(N4CCOCC4)nc3c2)c1` [MMV023860], the “TbrCatL 10’ Inhibition” value is 14%.

On to `CC(C)(C)c1cc(C(=O)N2CCN(c3nccnc3C#N)CC2)n(Cc2ccccc2)n1` [MMV023949], for which the “TbrCatL 10’ Inhibition” value is -3%.

For the compound `O=C(Nc1cccc(-c2ccc(NCCCN3CCCC3)nc2)c1)c1ccccc1` [MMV023953], the “TbrCatL 10’ Inhibition” value is 7%.

Consider `c1cncc(NCc2ccc(-c3cc4ccncc4cc3OC3CCNCC3)s2)c1` [MMV023969], for which the “TbrCatL 10’ Inhibition” value came out at 17%.

Consider `COc1ccc(-c2cnc3ccc(N4CCCC4)nn23)cc1OC` [MMV023985], for which the “TbrCatL 10’ Inhibition” value was -1%.

Turning to `O=C(Nc1ccccc1)c1ccc(-c2cc3ccncc3cc2OC2CCNCC2)s1` [MMV024035], the “TbrCatL 10’ Inhibition” value was -5%.

Consider `NS(=O)(=O)c1cncc(-c2ccc3nccc(-c4cn[nH]c4)c3n2)c1` [MMV024101], for which the “TbrCatL 10’ Inhibition” value came to 34%.

Take `Cc1ccc(S(=O)(=O)n2cc(-c3ccnc(N)c3)c3cc(Br)cnc32)cc1` [MMV024114]: the “TbrCatL 10’ Inhibition” value came out at 1.6%.

With `CN(C)CCNC(=O)N1CCCN(c2ncnc3cc(-c4ccccc4)sc23)CC1` [MMV024195], the “TbrCatL 10’ Inhibition” value is recorded as -1.4%.

In the case of `Cc1ccc2[nH]c(C3CCCNC3)c(-c3ccncc3)c2c1` (centres unmarked) [MMV024311], the “TbrCatL 10’ Inhibition” value was found to be 12%.

The values above are taken from PMC9967275, “Screening the Pathogen Box to Discover and Characterize New Cruzain and TbrCatL Inhibitors” (Pathogens, 2023).
